Measured values from patent US6346527B1, “Guanidine derivatives” (Fujisawa Pharmaceutical Co., Ltd., priority 1998, dated 2002).
Counter-ions that a name gives are not always drawn.

Target: T1, Na^+/H^+ exchange in cells (Rattus norvegicus, UniProt P26431)
T1 construct: The cells were dissociated by gentle strokes, and the resulting suspension was filtrated through six layers of surgical gauze; from tissue; host or cells: thymus cells (thymocytes) of a male SD rat
Assay: Inhibitory activity on Na^+/H^+ exchange in cells
Assay type: cell-based
Details: rat (male SD) thymus cells; initial increase in intracellular pH (BCECF fluorescence) after adding NaCl (final 100 mM), 37° C.
Procedure: [2] Inhibitory activity on Na^+/H^+ exchange in cells
Procedure was carried out according to a similar manner to the method described in Enzymology 173, 777 (1989).
Cell preparation: One male SD strain rat weighing 250-300 g was sacrificed with the blow on the head. Then, the thymus was removed into ice-cold NaCl medium (140 mM sodium chloride, 1 mM potassium chloride, 1 mM calcium chloride, 1 mM magnesium chloride, 10 mM glucose and 20 mM N-2-hydroxyethylpiperazine-N′-2-ethanesulfonic acid (HEPES)—pH 7.3), cut in small fragments, and transferred to glass homogenizer. […]
Assay: The pellet was washed with Na-free buffer (140 mM Trimethyl ammonium, 4 mM KCl, 1 mM CaCl2, 1 mM MgSO4, 1 mM NaH2PO4, 18 mM glucose, 20 mM HEPES (pH 7.4)), then incubated with 16 μM of acetoxymethyl ester of 2′, 7′-bis(2-carboxyethyl)-5,6-carboxyfluorescein (BCECF-AM, Calbiochem Co.) and 20 mM NH4Cl at 37° C. for 30 minutes. […] Intracellular pH was measured at 37° C. with a spectrofluorometer (FS100, Kowa company, Japan) using the ratio of the emission (530 nm) obtained at 490 nm excitation wavelengths. […] The BCECF fluorescence signals were calibrated by titration with 1 M 2-(N-morpholino)ethanesulfonic acid (MES) after permeabilization of the cells with 0.5% Triton.

T1 sequence (P26431 whole entry): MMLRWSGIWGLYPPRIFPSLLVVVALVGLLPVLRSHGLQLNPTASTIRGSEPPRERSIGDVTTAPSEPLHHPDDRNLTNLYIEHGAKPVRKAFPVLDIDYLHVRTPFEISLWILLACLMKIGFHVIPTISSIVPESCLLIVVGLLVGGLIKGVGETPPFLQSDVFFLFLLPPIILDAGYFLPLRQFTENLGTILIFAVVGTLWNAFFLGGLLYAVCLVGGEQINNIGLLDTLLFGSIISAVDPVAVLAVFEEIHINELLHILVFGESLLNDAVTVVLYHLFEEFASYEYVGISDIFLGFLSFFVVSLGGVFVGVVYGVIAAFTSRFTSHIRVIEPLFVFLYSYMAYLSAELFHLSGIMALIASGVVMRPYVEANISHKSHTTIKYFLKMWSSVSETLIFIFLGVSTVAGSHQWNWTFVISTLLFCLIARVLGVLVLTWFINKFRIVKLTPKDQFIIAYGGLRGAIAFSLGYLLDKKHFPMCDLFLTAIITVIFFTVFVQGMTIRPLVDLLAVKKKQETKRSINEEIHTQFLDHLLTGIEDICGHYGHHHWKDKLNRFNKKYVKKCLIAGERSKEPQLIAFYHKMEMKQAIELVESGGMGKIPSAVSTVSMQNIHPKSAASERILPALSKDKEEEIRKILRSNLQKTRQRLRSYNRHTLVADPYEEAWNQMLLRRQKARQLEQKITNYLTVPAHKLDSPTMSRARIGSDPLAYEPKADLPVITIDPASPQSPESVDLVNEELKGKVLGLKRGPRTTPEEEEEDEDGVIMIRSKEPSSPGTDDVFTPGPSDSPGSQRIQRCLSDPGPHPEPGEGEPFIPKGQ

IC50: < 100 nM
SMILES: N=C(N)NC(=O)C1=Cc2cccc(/C=C/C(=O)O)c2OCC1 [(a), [9-[(E)-(2-Carboxyvinyl)]-2,3-dihydro-1-benzoxepin-4-carbonyl]guanidine hydrochloride]
